# “And” between values parts separate entries of the source, which are not always exact repeats. Equal entries are not always repeated. Toxic doses and inconclusive results are not listed.
# Test system: BDF1 mice, Lewis lung carcinoma iv, survival T/C
# Test: NCI In Vivo Anticancer Drug Screen. Data for tumor model Lewis Lung Carcinoma (intravenous) in B6D2F1 (BDF1) mice
# Settings: endpoint: median survival time, higher = longer survival
# Method: The antitumor activity of compounds was measured in mice bearing transplantable tumors. Survival or tumor size were measured and the results are expressed as the measurement made in the treated group (T) divided by the measurement made in the vehicle treated control group (C). The tumor model used in this assay is Lewis Lung Carcinoma (intravenous) in B6D2F1 (BDF1) mice
# [1] = dose: 3.13 mg/kg/injection, schedule: Q01DX009 (ip), vehicle: saline with Tween-80
# [2] = dose: 6.25 mg/kg/injection, schedule: Q01DX009 (ip), vehicle: saline with Tween-80
# [3] = dose: 12.5 mg/kg/injection, schedule: Q01DX009 (ip), vehicle: saline with Tween-80
# [4] = dose: 25.0 mg/kg/injection, schedule: Q01DX009 (ip), vehicle: saline with Tween-80
# [5] = dose: 50.0 mg/kg/injection, schedule: Q01DX009 (ip), vehicle: saline with Tween-80
# [6] = dose: 12.5 mg/kg/injection, schedule: Q01DX009 (ip), vehicle: saline
# [7] = dose: 25.0 mg/kg/injection, schedule: Q01DX009 (ip), vehicle: saline
# [8] = dose: 25.0 mg/kg/injection, schedule: Q01DX009 (ip), vehicle: Klucel (hydroxypropylcellulose) (HPC)
# [9] = dose: 50.0 mg/kg/injection, schedule: Q01DX009 (ip), vehicle: Klucel (hydroxypropylcellulose) (HPC)
# [10] = dose: 100.0 mg/kg/injection, schedule: Q01DX009 (ip), vehicle: Klucel (hydroxypropylcellulose) (HPC)
# [11] = dose: 50.0 mg/kg/injection, schedule: Q01DX009 (ip), vehicle: saline
# [12] = dose: 100.0 mg/kg/injection, schedule: Q01DX009 (ip), vehicle: saline with Tween-80
smiles,measurement,setting,value
C=C1C(=O)C2=CC1CCC(=O)C1(C)CCC(OC(C)=O)C(C)(C)C1CC2O (stereo not given),T/C,"dose: 3.75 mg/kg/injection, schedule: Q01DX009 (ip), vehicle: Klucel (hydroxypropylcellulose) (HPC)",105 % of control
same,T/C,"dose: 7.5 mg/kg/injection, schedule: Q01DX009 (ip), vehicle: Klucel (hydroxypropylcellulose) (HPC)",100 % of control
same,T/C,"dose: 15.0 mg/kg/injection, schedule: Q01DX009 (ip), vehicle: Klucel (hydroxypropylcellulose) (HPC)",100 % of control
same,T/C,"dose: 30.0 mg/kg/injection, schedule: Q01DX009 (ip), vehicle: Klucel (hydroxypropylcellulose) (HPC)",104 % of control
same,T/C,"dose: 60.0 mg/kg/injection, schedule: Q01DX009 (ip), vehicle: Klucel (hydroxypropylcellulose) (HPC)",93 % of control
Nc1nc(N)c2c(Cl)c(CNc3ccc(Cl)c(Cl)c3)ccc2n1,T/C,[1],102 % of control
same,T/C,[2],99 % of control
same,T/C,[3],108 % of control
same,T/C,[4],111 % of control
same,T/C,[5],98 % of control
NC(=O)c1ncn2c(=O)n(CCCl)nnc12,T/C,"dose: 3.12 mg/kg/injection, schedule: Q01DX009 (ip), vehicle: saline",103 % of control
same,T/C,"dose: 6.25 mg/kg/injection, schedule: Q01DX009 (ip), vehicle: saline",120 % of control
same,T/C,[6],159 % of control
same,T/C,[7],298 % of control
O=C1CCCCC1C(=O)C(F)(F)F (stereo not given),T/C,"dose: 50.0 mg/kg/injection, schedule: Q01DX009 (ip), vehicle: saline + Tween-80 + alcohol",100 % of control
Cc1c2cc[n+](CCN3CCCCC3)cc2c(C)c2c1[nH]c1ccc(O)cc12,T/C,"dose: 1.56 mg/kg/injection, schedule: Q01DX009 (ip), vehicle: suspension in saline",105 % of control
same,T/C,"dose: 3.12 mg/kg/injection, schedule: Q01DX009 (ip), vehicle: suspension in saline",100 % of control
same,T/C,"dose: 6.25 mg/kg/injection, schedule: Q01DX009 (ip), vehicle: suspension in saline",109 % of control
same,T/C,"dose: 12.5 mg/kg/injection, schedule: Q01DX009 (ip), vehicle: suspension in saline",118 % of control
same,T/C,"dose: 25.0 mg/kg/injection, schedule: Q01DX009 (ip), vehicle: suspension in saline",122 % of control
COc1ccc2[nH]c3c(c2c1)CCNC3CC(C)CCC=C(C)C (stereo not given),T/C,"dose: 6.25 mg/kg/injection, schedule: Q01DX009 (ip), vehicle: Klucel (hydroxypropylcellulose) (HPC)",116 % of control
same,T/C,"dose: 12.5 mg/kg/injection, schedule: Q01DX009 (ip), vehicle: Klucel (hydroxypropylcellulose) (HPC)",98 % of control
same,T/C,[8],102 % of control
same,T/C,[9],95 % of control
same,T/C,[10],107 % of control
NCCCNCCSP(=O)(O)O,T/C,"dose: 300.0 mg/kg/injection, schedule: Q01DX001 (ip), vehicle: saline",88 % of control
same,T/C,"dose: 500.0 mg/kg/injection, schedule: Q01DX001 (ip), vehicle: saline",88 % of control
Nc1nc(=S)c2ncn(C3OC(COC(=O)c4ccc(Cl)cc4)C(OC(=O)c4ccc(Cl)cc4)C3OC(=O)c3ccc(Cl)cc3)c2[nH]1 (stereo not given),T/C,"dose: 18.75 mg/kg/injection, schedule: Q01DX009 (ip), vehicle: Klucel (hydroxypropylcellulose) (HPC)",103 % of control
same,T/C,"dose: 37.5 mg/kg/injection, schedule: Q01DX009 (ip), vehicle: Klucel (hydroxypropylcellulose) (HPC)",106 % of control
same,T/C,"dose: 150.0 mg/kg/injection, schedule: Q01DX009 (ip), vehicle: Klucel (hydroxypropylcellulose) (HPC)",89 % of control
S=c1c2[nH]cnc2ncn1CCSC1=NC=NC2=NC=NC21 (stereo not given),T/C,[6],115 % of control
same,T/C,[7],100 % of control
same,T/C,[11],96 % of control
O=c1[nH]c(=O)n(C2CC(O)C(CO)O2)cc1F (stereo not given),T/C,"dose: 72.0 mg/kg/injection, schedule: Q04DX003 (ip), vehicle: saline",108 % of control and 113 % of control
same,T/C,"dose: 72.0 mg/kg/injection, schedule: Q04DX006 (ip), vehicle: saline",123 % of control
same,T/C,"dose: 103.0 mg/kg/injection, schedule: Q04DX006 (ip), vehicle: saline",116 % of control
same,T/C,"dose: 210.0 mg/kg/injection, schedule: Q04DX006 (ip), vehicle: saline",155 % of control
same,T/C,"dose: 300.0 mg/kg/injection, schedule: Q04DX006 (ip), vehicle: saline",96 % of control
same,T/C,"dose: 429.0 mg/kg/injection, schedule: Q04DX003 (ip), vehicle: saline",174 % of control
COc1cc(C)c(C2NC(=O)c3ccccc3N2)cc1C (stereo not given),T/C,[8],105 % of control
same,T/C,[9],97 % of control
same,T/C,[10],92 % of control
same,T/C,"dose: 200.0 mg/kg/injection, schedule: Q01DX009 (ip), vehicle: Klucel (hydroxypropylcellulose) (HPC)",97 % of control
same,T/C,"dose: 400.0 mg/kg/injection, schedule: Q01DX009 (ip), vehicle: Klucel (hydroxypropylcellulose) (HPC)",101 % of control
CCC1CN2C(=N1)c1ccccc1-c1cc(Cl)ccc12 (stereo not given),T/C,[1],104 % of control and 118 % of control
same,T/C,[2],109 % of control and 90 % of control
same,T/C,[3],100 % of control
same,T/C,[4],94 % of control and 107 % of control
same,T/C,[5],102 % of control and 122 % of control
O=S(=O)(N=N/C=C1\C=CC=CN1O)c1cccs1,T/C,[3],105 % of control
same,T/C,[4],115 % of control
same,T/C,[5],100 % of control
same,T/C,[12],92 % of control
CC(C)NCC(O)COc1cccc2ccccc12 (stereo not given),T/C,"dose: 8.0 mg/kg/injection, schedule: Q01DX009 (ip), vehicle: Klucel (hydroxypropylcellulose) (HPC)",90 % of control
same,T/C,"dose: 16.0 mg/kg/injection, schedule: Q01DX009 (ip), vehicle: Klucel (hydroxypropylcellulose) (HPC)",96 % of control
same,T/C,"dose: 32.0 mg/kg/injection, schedule: Q01DX009 (ip), vehicle: Klucel (hydroxypropylcellulose) (HPC)",92 % of control
same,T/C,"dose: 64.0 mg/kg/injection, schedule: Q01DX009 (ip), vehicle: Klucel (hydroxypropylcellulose) (HPC)",100 % of control
O=[N+]([O-])c1ccc(Sc2ccncn2)c([N+](=O)[O-])c1,T/C,[3],91 % of control
same,T/C,[4],112 % of control
same,T/C,[5],95 % of control
same,T/C,[12],107 % of control
O=S(=O)(O)O,T/C,"dose: 1.0 mg/kg/injection, schedule: Q01DX009 (ip), vehicle: saline with Tween-80",91 % of control
same,T/C,"dose: 2.0 mg/kg/injection, schedule: Q01DX009 (ip), vehicle: saline with Tween-80",86 % of control
same,T/C,"dose: 4.0 mg/kg/injection, schedule: Q01DX009 (ip), vehicle: saline with Tween-80",86 % of control
same,T/C,"dose: 8.0 mg/kg/injection, schedule: Q01DX009 (ip), vehicle: saline with Tween-80",97 % of control
c1ccc2c(c1)nnn1c3cnccc3nc21,T/C,"dose: 1.56 mg/kg/injection, schedule: Q01DX009 (ip), vehicle: saline with Tween-80",103 % of control
same,T/C,"dose: 3.12 mg/kg/injection, schedule: Q01DX009 (ip), vehicle: saline with Tween-80",90 % of control
same,T/C,[2],103 % of control
same,T/C,[3],109 % of control
Nc1ccc2ccc(O)cc2c1,T/C,[4],100 % of control
same,T/C,[5],99 % of control
same,T/C,[12],91 % of control
CC(C)C(N)C(=O)Nc1nncs1 (stereo not given),T/C,[6],104 % of control
same,T/C,[7],106 % of control
same,T/C,[11],106 % of control
same,T/C,"dose: 100.0 mg/kg/injection, schedule: Q01DX009 (ip), vehicle: saline",115 % of control
same,T/C,"dose: 200.0 mg/kg/injection, schedule: Q01DX009 (ip), vehicle: saline",95 % of control
O.O.[NH-]C1CCCCC1[NH-].[Pt+2] (stereo not given),T/C,"dose: 0.31 mg/kg/injection, schedule: Q01DX009 (ip), vehicle: dextrose",95 % of control
same,T/C,"dose: 2.5 mg/kg/injection, schedule: Q01DX009 (ip), vehicle: dextrose",99 % of control
same,T/C,"dose: 5.0 mg/kg/injection, schedule: Q01DX009 (ip), vehicle: dextrose",112 % of control
same,T/C,"dose: 10.0 mg/kg/injection, schedule: Q01DX009 (ip), vehicle: dextrose",117 % of control
COc1cc2ccnc(C=O)c2cc1OC,T/C,[4],107 % of control
same,T/C,[5],102 % of control
same,T/C,[12],102 % of control
same,T/C,"dose: 200.0 mg/kg/injection, schedule: Q01DX009 (ip), vehicle: saline with Tween-80",108 % of control
